Results taken from patent US4758421A (priority 1985, dated 1988).

How the values were obtained:
[1] = test system: Chinese hamster ovary (CHO) cells; experiment: CHO cell survival after 60 minutes exposure (FIG. 4); format: cell-based
Description: Chinese hamster ovary (CHO) cells were cultured in standard cell-culture medium, under log phase growth conditions. Increasing concentrations of either BL--Co--S--FeEDTA or FeEDTA were added to each of two groups of cells. The cells were incubated for 60 minutes at 37° C., and the percent cell survivors was determined conventionally by serial dilution in microtitre plates.

CHB235 = experiment: Binding constants with monoclonal antibody CHB235 by equilibrium dialysis; parameters: species or system mice; settings: specificity of antibody for the antibody-inducing antigen
Description: (§1) Monoclonal antibodies against L--benzyl--EDTA--In were prepared in cooperation with Hybritech, Inc., 11085 Toneyana Road, San Diego, Calif. 92121. Briefly, an L--benzyl--EDTA--In isothiocyanate reagent was reacted with keyhole limpet hemocyanin, which was used to immunize mice. Splenocytes derived from the immunized mice were fused with a suitable tumor cell line, using known somatic cell hybridization techniques. Promising clones were grown in mouse ascites fluid, and the antibodies obtained were purified by ion-exchange chromatography. Two antibodies against L--benzyl--EDTA--In, designated CHA255 and CHB235, were selected.
(§2) The binding constants of the two monoclonal antibodies with L--benzyl--EDTA chelates of several different metals were determined by equilibrium dialysis. The measured binding constants were shown in Table II below, with standard deviations indicated in parentheses.
(§3) Table III gives binding constant data from a second binding affinity study, involving different In--EDTA and In--HED3A chelates.

CHA255 = experiment: Binding constants with monoclonal antibody CHA255 by equilibrium dialysis; parameters: species or system mice; settings: specificity of antibody for the antibody-inducing antigen
Description: as §1, §2, §3

## O=C([O-])CN(CCN(CC(=O)[O-])CC(=O)[O-])CC(=O)[O-].[Fe+3] [FeEDTA]
[1]
  cell toxicity: relatively non-toxic

## L--benzyl--EDTA--In [In (III)]
CHB235
  binding constant greater than for non-antigen metal chelates: 1 to 4 orders of magnitude
CHA255
  binding constant greater than for non-antigen metal chelates: 1 to 4 orders of magnitude
